Results on four molecules are retold here after patent US10273468B2 (priority 2016, dated 2019).

Assay [1] has as its target T1, Tet(55) (Unknown prokaryotic organism, UniProt A0A0H4TXY1). Description: biochemical.
Assay [2] concerns the target T2, Tet(56) (Legionella longbeachae serogroup 1, UniProt D3HKY4). Description: biochemical.
Assay [3] addresses T2, Tet(56). It is filed as biochemical, L. longbeachae. The settings on record: 1 mM anhydrotetracycline, 0.1 mM tetracycline.
The target of assay [4] is T3, Tet(X) (Bacteroides thetaiotaomicron, UniProt Q93L51). The conditions noted are these: by Tet(X); cited from earlier work.
Assay [5] addresses T3, Tet(X). In kind it is biochemical. The settings on record: 1 mM anhydrotetracycline, 0.1 mM tetracycline.
In assay [6] the target is T1, Tet(55). In kind it is biochemical. The conditions noted are these: 1 mM anhydrotetracycline, 0.1 mM tetracycline.
For another assay, the system named is Tet(51). In kind it is biochemical. The settings on record: 1 mM anhydrotetracycline, 0.1 mM tetracycline.
For another assay, the system named is L. longbeacheae. In kind it is cell-based.
For assay [7], the target named is T4, Tet(50) (Unknown prokaryotic organism, UniProt A0A059WYP6). In kind it is biochemical. The conditions noted are these: 1 mM anhydrotetracycline, 0.1 mM tetracycline.
The test system of a further assay is Tet(47-56). The conditions noted are these: by Tet(47-56); cited from earlier work.
Assay [8] deals with T4, Tet(50). Description: biochemical.
Assay [9] deals with T1, Tet(55). Description: biochemical. The source holds these as a separate data set.

Entries after “also recorded” stand apart in the source; their conditions may differ. Like-named read-outs stand apart in the source and are kept apart here.

As for `Cc1c2c(c(O)c3c(O)ccc(Cl)c13)C(=O)[C@]1(O)C(=O)C(C(N)=O)=C(O)[C@@H](N(C)C)[C@@H]1C2` [anhydrochlortetracycline, (4S,4aS,12aS)-7-chloro-4-(dimethylamino)-3,10,11,12a-tetrahydroxy-6-methyl-1,12-dioxo-1,4,4a,5,12,12a-hexahydrotetracene-2-carboxamide], on Tet(55) [1], half-maximal inhibition (IC50) was put at 9 ± 1 µM.
Still for that read-out and setting: the value for `CN(C)[C@@H]1C(O)=C(C(N)=O)C(=O)[C@@]2(O)C(=O)c3c(cc4c(Cl)ccc(O)c4c3O)C[C@@H]12` [anhydrodemeclocycline, (4S,4aS,12aS)-7-chloro-4-(dimethylamino)-3,10,11,12a-tetrahydroxy-1,12-dioxo-1,4,4a,5,12,12a-hexahydrotetracene-2-carboxamide] was 9 ± 1 µM; that for `Cc1c2c(c(O)c3c(O)ccc(I)c13)C(=O)[C@]1(O)C(=O)C(C(N)=O)=C(O)[C@@H](N(C)C)[C@@H]1C2` [anhydroiodotetracycline, (4S,4aS,12aS)-4-(dimethylamino)-3,10,11,12a-tetrahydroxy-7-iodo-6-methyl-1,12-dioxo-1,4,4a,5,12,12a-hexahydrotetracene-2-carboxamide] was 6 ± 1 µM.
In the case of `Cc1c2c(c(O)c3c(O)cccc13)C(=O)[C@]1(O)C(=O)C(C(N)=O)=C(O)[C@@H](N(C)C)[C@@H]1C2` [anhydrotetracycline], the IC50 was 37.1 ± 1.1 µM against Tet(56) [2], 83.2 ± 1.2 µM against Tet(50) [8] and 25.6 ± 1.2 µM at Tet(55) [9]. Also, the “effect on enzymatic tetracycline degradation (HPLC)” value on Tet(56) [3] is given as “tetracycline is not degraded”; on Tet(X) [5] it was “able to prevent tetracycline degradation; also recorded: sufficient to decrease or prevent tetracycline degradation”; at Tet(55) [6], “sufficient to decrease or prevent tetracycline degradation”; with Tet(51) it was “sufficient to decrease or prevent tetracycline degradation”; on Tet(50) [7] it was “sufficient to decrease or prevent tetracycline degradation”. The enzymatic degradation result is given as “slowly degraded” at Tet(X) [4] and “not degraded” with Tet(47-56). Besides, the synergy with tetracycline entry in the assay on L. longbeacheae is “synergy was not observed”.

What is called IC50 is the concentration that gives 50% inhibition. Read a high IC50 as weaker potency in that assay.
